# Like-named read-outs stand apart in the source and are kept apart here.
# Legend:
# PI3Kgamma = PI3Kgamma (Homo sapiens, UniProt P48736); test: Biochemical PI3Kgamma (TR-FRET Adapta Universal Kinase Assay); details: mean of n measurements, read-out: PIK3g/ IC50
# Experimental: (§1) Test compounds were dissolved in DMSO (10 mM) and transferred into 1.4 mL flat bottom or V-shaped Matrix tubes carrying a unique 2D matrix chip by individual Novartis compound hubs. The numbers of these chips were distinctively linked to Novartis Pharma Numbers. The stock solutions were stored at −20° C. if not used immediately. For the test procedure the vials were defrosted and identified by a scanner whereby a working sheet was generated that guided the subsequent working steps.
# (§2) Compounds were either manually diluted in DMSO for individual experiments (96 wells enabling 10 cpds at 8 (single points) concentrations) as described in or prepared as described below if tested for profiling in 384-wells. This format enabled the assay of maximally 40 individual test compounds at 8 concentrations (single points) including 4 reference compounds. The dilution protocol included the production of “pre-dilution plates”, “master plates” and “assay plates”.
# (§3) 96 polypropylene well plates were used as pre-dilution plates. A total of 4 pre-dilution plates were prepared including 10 test compounds each on the plate positions A1-A10, one standard compound at A11 and one DMSO control at A12. Programs have been written to run these pipetting steps on the HamiltonSTAR robots.
# 100 μL of individual compound dilutions including standard compound and controls of the 4 “pre-dilution plates” were transferred into a 384 “master plate” including the following concentrations 1,820, 564, 182, 54.6, 18.2, 5.46, 1.82 and 0.546 μM, respectively in 90% DMSO.
# (§4) Identical “assay plates” were then prepared by pipetting 50 nL each of compound dilutions of the “master plates” into 384-well “assay plates”. The compounds were mixed with 4.5 μL of assays components plus 4.5 μL enzyme corresponding to a 1:181 dilution enabling the final concentration of 10, 3.0, 1.0, 0.3, 0.1, 0.03, 0.01 and 0.003 μM, respectively. The preparation of the “master plates” was handled by the Matrix PlateMate Plus robot and replication of “assay plates” by the HummingBird robot.
# The TR-FRET Adapta™ Universal Kinase Assay Kit was purchased from Invitrogen Corporation (Carlsbad/CA, USA) (Cat. No. PV5099). The kit contains the following reagents: Adapta Eu-anti-ADP Antibody (Europium labeled anti-ADP antibody in HEPES buffered saline, Cat. No. PV5097), Alexa Fluor® 647-labeled ADP tracer (Alexa Fluor® 647-labeled ADP tracer in HEPES buffered saline, Cat. No. PV5098), proprietary TR-FRET dilution buffer pH 7.5 (Cat. No. PV3574).
# PIK3CD substrate Phosphatidylinositol was obtained from Invitrogen (vesicules consisting of 2 mM PI in 50 mM HEPES pH7.5; Cat. No. PV5371). PIK3CG substrate Phosphatidylinositol-4,5-bisphosphate (PIP(4,5)2 was obtained from Invitrogen (PIP2:PS large unilamellar vesicules consisting of 1 mM PIP2: 19 mM PS in 50 mM HEPES pH7.5, 3 mM MgCl2, 1 mM EGTA; Cat. No. PV5100).
# Time-Resolved Fluorescence Resonance Energy Transfer (TR-FRET) is a technology based on energy transfer between two adjacent dyes, from an excited electron in one dye (the donor) to an electron of an adjacent dye (the acceptor) through resonance, then released as a photon. This energy transfer is detected by an increase in the fluorescence emission of the acceptor, and a decrease in the fluorescence emission of the donor. TR-FRET assays for protein kinases use a long-lifetime lanthanide Terbium or Europium chelates as the donor species which overcome interference from compound autofluorescence or light scatter from precipitated compounds, by introducing a delay after excitation by a flashlamp excitation source. Results are often expressed as a ratio of the intensities of the acceptor and donor fluorophores. The ratiometric nature of such a value corrects for differences in assay volumes between wells, as well as corrects for quenching effects due to colored compounds. The Adapta™ assay can be divided into two phases: a kinase reaction phase and an ADP detection phase. […]
# human PI3Kα = target: T1, human PI3Kα (Homo sapiens, UniProt P42336); test: Biochemical PI3Kalpha (KinaseGlo luminescent kinase assay)
# T1 construct: made in house
# Experimental: as §1, §2, §3, §4
# Catalytically active human PI3Kα, PI3Kβ, PI3Kδ, and mTOR were cloned, expressed and purified as described (Maira S M, Stauffer F, Brueggen J, Furet P, Schnell C, Fritsch C, Brachmann S, Chène P, de Pover A, Schoemaker K, Fabbro D, Gabriel D, Simonen M, Murphy L, Finan P, Sellers W, García-Echeverría C (2008), Mol Cancer Ther. 7:1851-63 and Maira S M, Pecchi S, Brueggen J, Huh K, Schnell C, Fritsch C, Nagel T, Wiesmann M, Brachmann S, Dorsch M, Chène P, Schoemaker K, De Pover A, Menezes D, Fabbro D, Sellers W, García-Echeverría C, Voliva C F (2011), Mol. Cancer Ther. accepted).
# The luminescence-based ATP detection reagent KinaseGlo was obtained from Promega, (Cat. No. V6714, Lot No. 236161) through Catalys, Wallisellen, Switzerland. (L-alpha-phosphatidylinositol (PI), Liver, Bovine) were obtained from Avanti Polar Lipid (Cat. No. 840042C, Lot#LPI-274), Phosphatidylinositol-4,5-bisphosphate (PIP(4,5)2 (Avanti, Cat. No. 840046×) or L-α-phosphatidylinositol (PI) was obtained from Avanti Polar Lipid (Cat. No. 840042C, Lot#LPI-274). L-α-Phosphatidylserine (PS) was from Avanti Polar Lipid (Cat. No. 840032C), n-OctylGlucoside Avanti Polar Lipid (Cat. No. 10634425001). Luminescence is a well established readout to determine ATP concentrations and can thus be used to follow the activity of many kinases regardless of their substrate. The Kinase Glo Luminescent Kinase Assay (Promega, Madison/Wis., USA) is a homogeneous HTS method of measuring kinase activity by quantifying the amount of ATP remaining in solution following a kinase reaction.
# 50 nL of compound dilutions were dispensed onto black 384-well low volume Non Binding Styrene (NBS) plates (Costar Cat. No. NBS#3676) as described in section 8.2. L-α-phosphatidylinositol (PI), provided as 10 mg/ml solution in methanol, was transferred into a glass tube and dried under nitrogen beam. It was then resuspended in 3% OctylGlucoside by vortexing and stored at 4° C. 5 μL of a mix of PI/OG with the PI3Ka and Pi3Kb subtypes were added. Kinase reactions were started by addition of 5 μl of ATP-mix containing in a final volume 10 μL 10 mM TRIS-HCl pH 7.5, 3 mM MgCl2, 50 mM NaCl, 0.05% CHAPS, 1 mM DTT and 1 μM ATP, and occurred at room temperature.
# [1] = a different, separate measurement, read-out: PI3Ka IC50, different, separate measurement (footnote)
# [2] = biochemical, 1 μM ATP, mean of n measurements, read-out: PI3Ka/ IC50
# [3] = biochemical, 1 μM ATP, mean of n measurements
# Sequence of PI3Kgamma (P48736 whole entry, species assumed): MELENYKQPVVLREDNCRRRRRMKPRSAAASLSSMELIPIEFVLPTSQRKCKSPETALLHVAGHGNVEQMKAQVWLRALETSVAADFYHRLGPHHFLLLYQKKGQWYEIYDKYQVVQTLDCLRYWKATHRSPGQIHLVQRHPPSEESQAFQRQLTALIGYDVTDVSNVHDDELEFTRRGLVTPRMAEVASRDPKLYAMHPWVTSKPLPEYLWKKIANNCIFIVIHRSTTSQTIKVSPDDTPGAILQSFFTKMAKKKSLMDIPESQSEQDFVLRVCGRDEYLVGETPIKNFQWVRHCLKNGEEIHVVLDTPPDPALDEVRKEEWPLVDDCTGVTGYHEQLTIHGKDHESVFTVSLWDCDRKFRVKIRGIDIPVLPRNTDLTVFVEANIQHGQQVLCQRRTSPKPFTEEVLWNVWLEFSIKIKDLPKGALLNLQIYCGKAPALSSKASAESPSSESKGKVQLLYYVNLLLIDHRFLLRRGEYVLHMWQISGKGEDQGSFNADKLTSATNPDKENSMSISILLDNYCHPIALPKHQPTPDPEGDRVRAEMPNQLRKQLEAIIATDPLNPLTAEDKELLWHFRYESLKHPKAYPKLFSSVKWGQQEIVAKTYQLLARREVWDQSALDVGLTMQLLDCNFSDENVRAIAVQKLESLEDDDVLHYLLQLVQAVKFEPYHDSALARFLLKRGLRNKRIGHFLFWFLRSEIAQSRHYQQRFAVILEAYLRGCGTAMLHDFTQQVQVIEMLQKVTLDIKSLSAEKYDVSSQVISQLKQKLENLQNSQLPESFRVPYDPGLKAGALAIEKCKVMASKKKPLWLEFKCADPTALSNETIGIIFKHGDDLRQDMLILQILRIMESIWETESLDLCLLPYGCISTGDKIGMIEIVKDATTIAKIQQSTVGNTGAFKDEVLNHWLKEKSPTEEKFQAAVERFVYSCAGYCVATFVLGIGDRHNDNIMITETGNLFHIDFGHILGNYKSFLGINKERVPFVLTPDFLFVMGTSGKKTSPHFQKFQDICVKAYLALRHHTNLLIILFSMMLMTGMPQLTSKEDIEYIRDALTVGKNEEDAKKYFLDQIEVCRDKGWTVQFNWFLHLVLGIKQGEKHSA
# T1 sequence (P42336 with tags, fused parts or gaps limits assumed): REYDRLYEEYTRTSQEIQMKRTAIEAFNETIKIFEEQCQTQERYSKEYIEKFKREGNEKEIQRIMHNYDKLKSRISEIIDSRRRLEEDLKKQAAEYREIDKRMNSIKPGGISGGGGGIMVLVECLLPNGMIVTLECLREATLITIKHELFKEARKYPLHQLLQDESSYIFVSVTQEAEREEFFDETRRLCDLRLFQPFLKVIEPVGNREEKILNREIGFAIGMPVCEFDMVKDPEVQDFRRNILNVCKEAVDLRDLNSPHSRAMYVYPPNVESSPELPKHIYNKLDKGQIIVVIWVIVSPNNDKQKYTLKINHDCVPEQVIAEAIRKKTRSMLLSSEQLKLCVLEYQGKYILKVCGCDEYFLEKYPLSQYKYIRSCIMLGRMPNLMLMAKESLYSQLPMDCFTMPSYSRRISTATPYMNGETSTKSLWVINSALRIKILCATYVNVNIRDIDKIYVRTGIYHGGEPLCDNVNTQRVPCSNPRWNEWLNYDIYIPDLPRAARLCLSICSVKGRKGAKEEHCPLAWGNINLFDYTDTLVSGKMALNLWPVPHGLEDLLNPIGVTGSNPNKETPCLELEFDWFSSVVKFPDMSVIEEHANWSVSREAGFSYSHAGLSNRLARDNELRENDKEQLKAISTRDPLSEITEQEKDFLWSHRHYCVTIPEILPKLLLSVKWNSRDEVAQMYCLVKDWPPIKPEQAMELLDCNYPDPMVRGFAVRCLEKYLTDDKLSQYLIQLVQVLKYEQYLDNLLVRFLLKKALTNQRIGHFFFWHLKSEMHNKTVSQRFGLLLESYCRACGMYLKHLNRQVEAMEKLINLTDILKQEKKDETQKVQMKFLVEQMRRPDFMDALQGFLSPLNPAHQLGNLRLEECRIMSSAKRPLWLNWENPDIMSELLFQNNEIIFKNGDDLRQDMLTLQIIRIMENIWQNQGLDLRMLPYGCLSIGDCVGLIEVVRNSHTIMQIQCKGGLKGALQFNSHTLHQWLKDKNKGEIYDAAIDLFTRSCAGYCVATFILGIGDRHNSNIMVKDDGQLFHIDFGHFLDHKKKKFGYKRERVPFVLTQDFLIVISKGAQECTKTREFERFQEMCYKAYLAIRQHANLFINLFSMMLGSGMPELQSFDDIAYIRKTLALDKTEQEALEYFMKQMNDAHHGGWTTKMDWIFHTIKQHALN
structure (smiles),measurement,setting,value
"C[C@H]1C(CC(C)(C)O)OC(=O)N1c1cc(-c2cnc(N)nc2C(F)(F)F)nc(N2CCOCC2)n1 (mixture of isomers) [Example 26, (4S,5R)- and (4S,5S)-3-(2′-amino-2-morpholino-4′-(trifluoromethyl)-[4,5′-bipyrimidin]-6-yl)-5-(2-hydroxy-2-methylpropyl)-4-methyloxazolidin-2-one]",IC50,PI3Kgamma,290 nM
same,IC50,human PI3Kα; [1],< 3 nM
same,IC50,human PI3Kα; [2],5 nM
"CC1(CO)COC(=O)N1c1cc(-c2cnc(N)nc2C(F)(F)F)nc(N2CCOCC2)n1 (racemic) [Example 3, 3-(2′-amino-2-morpholino-4′-(trifluoromethyl)-4,5′-bipyrimidin-6-yl)-4-(hydroxymethyl)-4-methyloxazolidin-2-one]",IC50,PI3Kgamma,516 nM
same,PI3Ka/ IC50,human PI3Kα; [3],0.021 umol I-1
"Nc1ncc(-c2cc(N3C(=O)O[C@@H]4[C@@H](O)CC[C@@H]43)nc(N3CCOCC3)n2)c(C(F)(F)F)n1 (racemic) [Example 22, (3aR*,6R*,6aR*)-3-(2′-Amino-2-morpholino-4′-(trifluoromethyl)-[4,5′-bipyrimidin]-6-yl)-6-hydroxyhexahydro-2H-cyclopenta[d]oxazol-2-one]",IC50,PI3Kgamma,145 nM
same,IC50,human PI3Kα; [2],6 nM
"Nc1ncc(-c2cc(N3C(=O)OC4C(O)CCC43)nc(N3CCOCC3)n2)c(C(F)(F)F)n1 (single isomer, unassigned) [Example 22A]",IC50,PI3Kgamma,110 nM
same,IC50,human PI3Kα; [2],7 nM
"Nc1ncc(-c2cc(N3C(=O)OC4C(O)CCC43)nc(N3CCOCC3)n2)c(C(F)(F)F)n1 (single isomer, unassigned) [Example 22B]",IC50,PI3Kgamma,410 nM
same,IC50,human PI3Kα; [2],26 nM
"C[C@@H](O)C[C@H]1OC(=O)N(c2cc(-c3cnc(N)nc3C(F)(F)F)nc(N3CCOCC3)n2)[C@H]1C (single isomer, unassigned) [Example 24]",IC50,PI3Kgamma,540 nM
same,IC50,human PI3Kα; [2],5 nM
"C[C@H](O)CC1OC(=O)N(c2cc(-c3cnc(N)nc3C(F)(F)F)nc(N3CCOCC3)n2)[C@H]1C (single isomer, unassigned) [Example 25]",IC50,PI3Kgamma,205 nM
same,IC50,human PI3Kα; [1],< 3 nM
same,IC50,human PI3Kα; [2],5 nM
"C[C@H]1COC(=O)N1c1cc(-c2cnc(N)nc2C(F)(F)F)nc(N2CCOCC2)n1 [Example 1, (S)-3-(2′-Amino-2-morpholin-4-yl-4′-trifluoromethyl-[4,5′]bipyrimidinyl-6-yl)-4-methyl-oxazolidin-2-one]",IC50,PI3Kgamma,276 nM
same,PI3Ka/ IC50,human PI3Kα; [3],0.008 umol I-1
"CC1(C)OC(=O)N(c2cc(-c3cnc(N)nc3C(F)(F)F)nc(N3CCOCC3)n2)[C@H]1CO [Example 2, (S)-3-(2′-Amino-2-morpholin-4-yl-4′-trifluoromethyl-[4,5′]bipyrimidinyl-6-yl)-4-hydroxymethyl-5,5-dimethyl-oxazolidin-2-one]",IC50,PI3Kgamma,348 nM
same,PI3Ka/ IC50,human PI3Kα; [3],0.023 umol I-1
"Nc1ncc(-c2cc(N3C(=O)O[C@H]4CCCC[C@@H]43)nc(N3CCOCC3)n2)c(C(F)(F)F)n1 [Example 4, (3aS,7aS)-3-(2′-Amino-2-morpholin-4-yl-4′-trifluoromethyl-[4,5′]bipyrimidinyl-6-yl)-hexahydro-benzooxazol-2-one]",IC50,PI3Kgamma,238 nM
same,PI3Ka/ IC50,human PI3Kα; [3],0.014 umol I-1
"COC[C@H]1COC(=O)N1c1cc(-c2cnc(N)nc2C(F)(F)F)nc(N2CCOCC2)n1 [Example 5, (S)-3-(2′-Amino-2-morpholin-4-yl-4′-trifluoromethyl-[4,5′]bipyrimidinyl-6-yl)-4-methoxymethyl-oxazolidin-2-one]",IC50,PI3Kgamma,329 nM
same,PI3Ka/ IC50,human PI3Kα; [3],0.011 umol I-1
C[C@@H]1OC(=O)N(c2cc(-c3cnc(N)nc3C(F)(F)F)nc(N3CCOCC3)n2)[C@H]1CO [Example 6],IC50,PI3Kgamma,258 nM
same,PI3Ka/ IC50,human PI3Kα; [3],0.013 umol I-1
[2H]C1([2H])OC([2H])([2H])C([2H])([2H])N(c2nc(-c3cnc(N)nc3C(F)(F)F)cc(N3C(=O)O[C@H](C)[C@@H]3CO)n2)C1([2H])[2H] [Example 8],IC50,PI3Kgamma,237 nM
same,PI3Ka/ IC50,human PI3Kα; [3],0.013 umol I-1
"Nc1ncc(-c2cc(N3C(=O)OC[C@@H]3CCO)nc(N3CCOCC3)n2)c(C(F)(F)F)n1 [Example 9, (S)-3-(2′-Amino-2-morpholin-4-yl-4′-trifluoromethyl-[4,5′]bipyrimidinyl-6-yl)-4-(2-hydroxy-ethyl)-oxazolidin-2-one]",IC50,PI3Kgamma,1130 nM
same,PI3Ka/ IC50,human PI3Kα; [3],0.384 umol I-1
"C[C@H]1OC(=O)N(c2cc(-c3cnc(N)nc3C(F)(F)F)nc(N3CCOC[C@@H]3C)n2)[C@H]1CO [Example 10, (4S,5R)-3-[2′-Amino-2-((S)-3-methyl-morpholin-4-yl)-4′-trifluoromethyl-[4,5′]bipyrimidinyl-6-yl]-4-hydroxymethyl-5-methyl-oxazolidin-2-one]",IC50,PI3Kgamma,158 nM
same,PI3Ka/ IC50,human PI3Kα; [3],0.008 umol I-1
"Nc1ncc(-c2cc(N3CCOC3=O)nc(N3CCOCC3)n2)c(C(F)(F)F)n1 [Example 11, 3-(2′-Amino-2-morpholin-4-yl-4′-trifluoromethyl-[4,5′]bipyrimidinyl-6-yl)-oxazolidin-2-one, reference compound]",IC50,PI3Kgamma,998 nM
same,PI3Ka/ IC50,human PI3Kα; [3],0.038 umol I-1
"C[C@H]1OC(=O)N(c2cc(-c3cnc(N)nc3C(F)(F)F)nc(N3CCOCC3)n2)[C@H]1COC=O [Example 12, Formic acid (4S,5R)-3-(2′-amino-2-morpholin-4-yl-4′-trifluoromethyl-[4,5′]bipyrimidinyl-6-yl)-5-methyl-2-oxo-oxazolidin-4-ylmethyl ester]",IC50,PI3Kgamma,1660 nM
same,PI3Ka/ IC50,human PI3Kα; [3],0.030 umol I-1

# — patent US8865894B2, “Oxazolidin-2-one compounds and uses thereof” (Novartis AG, priority 2012, dated 2014)
